The values that follow come from patent US20100022527A1, “BIPHENYL SUBSTITUTED SPIROTETRONIC ACIDS AND THEIR USE FOR THE TREATMENT OF RETROVIRAL DISEASES” (priority 2006, published 2010).

Structures are written as SMILES.

The experiment has as its target T1, HIV-1 protease wild type protein (Human immunodeficiency virus type 1 group M subtype B, UniProt P04585).
T1 construct: HIV-1 protease wild type protein; purchased AscoProt Biotech, Prague, Czech Republic
The experiment can be described thus: Biochemical protease assay. The procedure:
For the determination of their in vitro activity on HIV proteases the test substances are dissolved in DMSO and serially diluted. In each case 0.5 μl of substance dilution, 20 μl of 0.2-1 nM HIV-1 protease wild type or mutant protein (e.g., multiresistant isolate “35513”: L10I, I15V, L19I, K20R, E35D, M36I, R41K, I54V, L63P, H69K, A71V, T74P, I84V, L89M, L90M, 193L, AscoProt Biotech, Prague, Czech Republic) in buffer 1 (50 mM sodium acetate pH 4.9, 0.02% BSA, 0.1 mM EDTA, 0.5 mM DTT) and 20 μl of 8 μM substrate (M1865 from Bachem, Bubendorf, Switzerland; Matayoshi et al., Science 1990, 247, 954-8) in buffer 1 are added successively to a 384 well microtiter plate (Greiner, Frickenhausen, Germany), incubated for 60-180 minutes at 32° C. and the fluorescence is measured (e.g., Tecan Safire, 340 nm extinction, 520 nm emission). IC50 values are determined by graphical plotting the substance concentration against the percentage inhibition.
For orientation: IC50 means the concentration needed to halve the response being measured. Lower therefore signals greater potency in that assay. Take `Cc1cc(-c2cccc(S(C)(=O)=O)c2)c(Cl)cc1C1=C(O)C2(CCCN(C(C)C3=NOCCO3)C2)OC1=O` (stereo not drawn) [Example 102]: the concentration for half-maximal inhibition (IC50) is ≤ 100 nM.

With `CC(=O)N1CCCC2(C1)OC(=O)C(c1cc(Cl)c(-c3cccc(S(C)(=O)=O)c3)cc1C)=C2O` (stereo not drawn) [Example 104], the half-maximal inhibitory concentration (IC50) was ≤ 100 nM.

Consider `Cc1cc(-c2cccc(S(C)(=O)=O)c2)c(Cl)cc1C1=C(O)C2(CCCN(C(=O)N3CCOCC3)C2)OC1=O` (stereo not drawn) [Example 106], for which the IC50 is ≤ 100 nM.

Consider `Cc1cc(-c2cccc(S(C)(=O)=O)c2)c(Cl)cc1C1=C(O)C2(CCCN(C(=O)CCC(=O)c3ccccn3)C2)OC1=O` (stereo not drawn) [Example 108], for which the half-maximal inhibitory concentration (IC50) was ≤ 100 nM.

Regarding `Cc1cc(-c2cccc(S(C)(=O)=O)c2)c(Cl)cc1C1=C(O)C2(CCN(C(=O)CCc3ccc(S(C)(=O)=O)cc3)CC2)OC1=O` [Example 109], the 50% inhibitory concentration (IC50) is ≤ 100 nM.

`Cc1cc(-c2cccc(S(C)(=O)=O)c2)c(Cl)cc1C1=C(O)C2(CCCN(S(=O)(=O)Cc3ccccc3)C2)OC1=O` (stereo not drawn) [Example 110]: the IC50 was ≤ 100 nM.

In the case of `Cc1cc(-c2cccc(S(C)(=O)=O)c2)c(Cl)cc1C1=C(O)C2(CCCN(C(=O)/C=C/c3cccnc3)C2)OC1=O` (stereo not drawn) [Example 111], the concentration for half-maximal inhibition (IC50) was ≤ 100 nM.

Consider `Cc1cc(-c2cccc(S(C)(=O)=O)c2)c(Cl)cc1C1=C(O)C2(CCCN(C(=O)CCCS(N)(=O)=O)C2)OC1=O` (stereo not drawn) [Example 113], for which the 50% inhibitory concentration (IC50) was ≤ 100 nM.

In the case of `Cc1cc(-c2cccc(S(C)(=O)=O)c2)c(Cl)cc1C1=C(O)C2(CCCN(S(=O)(=O)CCCC(F)(F)F)C2)OC1=O` (stereo not drawn) [Example 114], the concentration for half-maximal inhibition (IC50) is ≤ 100 nM.

On to `COCCNC(=O)CN1CCCC2(C1)OC(=O)C(c1cc(Cl)c(-c3cccc(S(C)(=O)=O)c3)cc1C)=C2O` (stereo not drawn) [Example 116], for which the IC50 was ≤ 100 nM.

With `CC/C=C\C(=O)N1CCCC2(C1)OC(=O)C(c1cc(Cl)c(-c3cccc(S(C)(=O)=O)c3)cc1C)=C2O` (stereo not drawn) [Example 120], the half-inhibitory concentration (IC50) was ≤ 100 nM.

On to `Cc1cc(-c2cccc(S(C)(=O)=O)c2)c(Cl)cc1C1=C(O)C2(CCCN(C(=O)/C=C\c3cnn(C)c3)C2)OC1=O` (stereo not drawn) [Example 121], for which the IC50 was ≤ 100 nM.

For `C/C(=C\C(=O)N1CCCC2(C1)OC(=O)C(c1cc(Cl)c(-c3cccc(S(C)(=O)=O)c3)cc1C)=C2O)CO` (stereo not drawn) [Example 122], the IC50 was ≤ 100 nM.

Regarding `Cc1cc(-c2cccc(S(C)(=O)=O)c2)c(Cl)cc1C1=C(O)C2(CCCN(C(=O)/C=C\c3c[nH]cn3)C2)OC1=O` (stereo not drawn) [Example 123], the 50% inhibitory concentration (IC50) is ≤ 100 nM.

In the case of `Cc1cc(-c2cccc(S(C)(=O)=O)c2)c(Cl)cc1C1=C(O)C2(CCCN(C(=O)/C=C\c3cccc(C#N)c3)C2)OC1=O` (stereo not drawn) [Example 124], the half-maximal inhibitory concentration (IC50) is ≤ 100 nM.

Take `Cc1cc(-c2cccc(S(C)(=O)=O)c2)c(Cl)cc1C1=C(O)C2(CCCN(CC(=O)Nc3ccccc3)C2)OC1=O` (stereo not drawn) [Example 126]: the half-inhibitory concentration (IC50) is ≤ 100 nM.

As to `Cc1cc(-c2cccc(S(C)(=O)=O)c2)c(Cl)cc1C1=C(O)C2(CCCN(CC(=O)NCc3ccccc3)C2)OC1=O` (stereo not drawn) [Example 128], the IC50 is ≤ 100 nM.

As for `Cc1cc(-c2cccc(S(C)(=O)=O)c2)c(Cl)cc1C1=C(O)C2(CCCN(CC(=O)C(C)(CF)CF)C2)OC1=O` (stereo not drawn) [Example 129], the IC50 was ≤ 100 nM.

For `Cc1cc(-c2cccc(S(C)(=O)=O)c2)c(Cl)cc1C1=C(O)C2(CCCN(CC(=O)NCCc3ccccc3)C2)OC1=O` (stereo not drawn) [Example 130], the half-maximal inhibitory concentration (IC50) is ≤ 100 nM.

For `Cc1ccccc1CNC(=O)CN1CCCC2(C1)OC(=O)C(c1cc(Cl)c(-c3cccc(S(C)(=O)=O)c3)cc1C)=C2O` (stereo not drawn) [Example 132], the IC50 is ≤ 100 nM.

As to `Cc1ccc(CNC(=O)CN2CCCC3(C2)OC(=O)C(c2cc(Cl)c(-c4cccc(S(C)(=O)=O)c4)cc2C)=C3O)cc1` (stereo not drawn) [Example 133], the IC50 was ≤ 100 nM.

For `Cc1cc(-c2cccc(S(C)(=O)=O)c2)c(Cl)cc1C1=C(O)C2(CCCN(CC(=O)NC(C)c3ccccc3)C2)OC1=O` (stereo not drawn) [Example 134], the IC50 is ≤ 100 nM.

`Cc1cc(-c2cccc(S(C)(=O)=O)c2)c(Cl)cc1C1=C(O)C2(CCCN(C(=O)CCCc3ccccc3)C2)OC1=O` (stereo not drawn) [Example 135]: the IC50 is ≤ 100 nM.

Regarding `Cc1cc(-c2cccc(S(C)(=O)=O)c2)c(Cl)cc1C1=C(O)C2(CCCN(C(=O)CC3CCCC3)C2)OC1=O` (stereo not drawn) [Example 136], the IC50 is ≤ 100 nM.

Take `COC(=O)CCCC(=O)N1CCC2(CC1)OC(=O)C(c1cc(Cl)c(-c3cccc(S(C)(=O)=O)c3)cc1C)=C2O` [Example 138, methyl 5-{3-[2-chloro-5-methyl-3′-(methylsulfonyl)biphenyl-4-yl]-4-hydroxy-2-oxo-1-oxa-8-azaspiro[4.5]dec-3-en-8-yl}-5-oxopentanoate]: the IC50 is ≤ 100 nM.

Consider `Cc1cc(-c2cccc(S(C)(=O)=O)c2)c(Cl)cc1C1=C(O)C2(CCN(C(=O)CCCC(C)C)CC2)OC1=O` [Example 139], for which the half-maximal inhibitory concentration (IC50) is ≤ 100 nM.

Consider `Cc1cc(-c2cccc(S(C)(=O)=O)c2)c(Cl)cc1C1=C(O)C2(CCN(C(=O)CCCS(N)(=O)=O)CC2)OC1=O` [Example 140], for which the IC50 is ≤ 100 nM.

With `COc1ccc(CCCC(=O)N2CCC3(CC2)OC(=O)C(c2cc(Cl)c(-c4cccc(S(C)(=O)=O)c4)cc2C)=C3O)cc1` [Example 141], the IC50 is ≤ 100 nM.

As to `Cc1cc(-c2cccc(S(C)(=O)=O)c2)c(Cl)cc1C1=C(O)C2(CCN(C(=O)Cc3ccc(S(=O)(=O)O)cc3)CC2)OC1=O` [Example 143], the concentration for half-maximal inhibition (IC50) was ≤ 100 nM.

In the case of `Cc1cc(-c2cccc(S(C)(=O)=O)c2)c(Cl)cc1C1=C(O)C2(CCN(C(=O)Cc3ccc(OC(F)(F)F)cc3)CC2)OC1=O` [Example 144], the half-maximal inhibitory concentration (IC50) was ≤ 100 nM.

Turning to `Cc1cc(-c2cccc(S(C)(=O)=O)c2)c(Cl)cc1C1=C(O)C2(CCN(C(=O)CCCc3ccccc3)CC2)OC1=O` [Example 145], the IC50 is ≤ 100 nM.

As to `Cc1cc(-c2cccc(S(C)(=O)=O)c2)c(Cl)cc1C1=C(O)C2(CCN(C(=O)CCc3cccnc3)CC2)OC1=O` [Example 147], the concentration for half-maximal inhibition (IC50) is ≤ 100 nM.

Regarding `Cc1cc(-c2cccc(S(C)(=O)=O)c2)c(Cl)cc1C1=C(O)C2(CCN(C(=O)OCC(C)(C)C)CC2)OC1=O` [Example 152], the half-maximal inhibitory concentration (IC50) was ≤ 100 nM.

Consider `CCOC(=O)N1CCC2(CC1)OC(=O)C(c1cc(Cl)c(-c3cccc(S(C)(=O)=O)c3)cc1C)=C2O` [Example 153], for which the IC50 is ≤ 100 nM.

For the molecule `Cc1cc(-c2cccc(S(C)(=O)=O)c2)c(Cl)cc1C1=C(O)C2(CCN(C(=O)N3CCCC3)CC2)OC1=O` [Example 155], the IC50 is ≤ 100 nM.

Turning to `Cc1cc(-c2cccc(S(C)(=O)=O)c2)c(Cl)cc1C1=C(O)C2(CCN(C(=O)N(C(C)C)C(C)C)CC2)OC1=O` [Example 156], the IC50 is ≤ 100 nM.

Regarding `CCN(CC)C(=O)N1CCC2(CC1)OC(=O)C(c1cc(Cl)c(-c3cccc(S(C)(=O)=O)c3)cc1C)=C2O` [Example 157], the half-inhibitory concentration (IC50) was ≤ 100 nM.

In the case of `CC(=O)N1CCC2(CC1)OC(=O)C(c1cc(Cl)c(-c3cccc(S(C)(=O)=O)c3)cc1C)=C2O` [Example 158], the IC50 is ≤ 100 nM.

Take `Cc1cc(-c2cccc(S(C)(=O)=O)c2)c(Cl)cc1C1=C(O)C2(CCCN(CC(=O)NCc3ccncc3)C2)OC1=O` (stereo not drawn) [Example 161, 2-{3-[2-Chloro-5-methyl-3′-(methylsulfonyl)biphenyl-4-yl]-4-hydroxy-2-oxo-1-oxa-7-azaspiro[4.5]dec-3-en-7-yl}-N-(pyridin-4-ylmethyl)acetamide]: the IC50 is ≤ 100 nM.

As to `Cc1cc(-c2cccc(S(C)(=O)=O)c2)c(Cl)cc1C1=C(O)C2(CCCN(CC(=O)NCc3cccnc3)C2)OC1=O` (stereo not drawn) [Example 162], the IC50 was ≤ 100 nM.

For the molecule `Cc1cc(-c2cccc(S(C)(=O)=O)c2)c(Cl)cc1C1=C(O)C2(CCCN(CC(=O)NCc3ccccn3)C2)OC1=O` (stereo not drawn) [Example 163], the concentration for half-maximal inhibition (IC50) is ≤ 100 nM.

Consider `Cc1cc(-c2cccc(S(C)(=O)=O)c2)c(Cl)cc1C1=C(O)C2(CCCN(CC(=O)NCc3ccc(OC(F)(F)F)cc3)C2)OC1=O` (stereo not drawn) [Example 166], for which the half-inhibitory concentration (IC50) was ≤ 100 nM.

Take `Cc1cc(-c2cccc(S(C)(=O)=O)c2)c(Cl)cc1C1=C(O)C2(CCCN(CC(=O)NCc3ccsc3)C2)OC1=O` (stereo not drawn) [Example 167]: the IC50 is ≤ 100 nM.

Regarding `Cc1cc(-c2cccc(S(C)(=O)=O)c2)c(Cl)cc1C1=C(O)C2(CCCN(CC(=O)NCc3ccoc3)C2)OC1=O` (stereo not drawn) [Example 168], the IC50 was ≤ 100 nM.

In the case of `Cc1cc(-c2cccc(S(C)(=O)=O)c2)c(Cl)cc1C1=C(O)C2(CCCN(CC(=O)NCc3ccco3)C2)OC1=O` (stereo not drawn) [Example 169], the concentration for half-maximal inhibition (IC50) was ≤ 100 nM.

As to `Cc1cc(-c2cccc(S(C)(=O)=O)c2)c(Cl)cc1C1=C(O)C2(CCCN(CC(=O)NCc3cccs3)C2)OC1=O` (stereo not drawn) [Example 170], the IC50 was ≤ 100 nM.

In the case of `Cc1cc(-c2ccc(N)cc2)c(Cl)cc1C1=C(O)C2(CCCCC2)OC1=O` [Example 171, 3-(4′-Amino-2-chloro-5-methylbiphenyl-4-yl)-4-hydroxy-1-oxaspiro[4.5]dec-3-en-2-one], the half-maximal inhibitory concentration (IC50) is ≤ 100 nM.

For the molecule `Cc1cc(-c2cccc(N)c2)c(Cl)cc1C1=C(O)[C@]2(CC[C@@H]3CCC[C@@H]3C2)OC1=O` [Example 175], the IC50 was ≤ 100 nM.

For `Cc1cc(-c2cccc(NS(C)(=O)=O)c2)c(Cl)cc1C1=C(O)C2(CCCCC2)OC1=O` [Example 176, N-[2′-Chloro-4′-(4-hydroxy-2-oxo-1-oxaspiro[4.5]dec-3-en-3-yl)-5′-methylbiphenyl-3-yl]methanesulfonamide], the half-maximal inhibitory concentration (IC50) was ≤ 100 nM.

In the case of `CCCS(=O)(=O)Nc1cccc(-c2cc(C)c(C3=C(O)C4(CCCCC4)OC3=O)cc2Cl)c1` [Example 177], the IC50 was ≤ 100 nM.

As to `Cc1cc(-c2ccc(NS(C)(=O)=O)cc2)c(Cl)cc1C1=C(O)C2(CCCCC2)OC1=O` [Example 178], the half-inhibitory concentration (IC50) was ≤ 100 nM.
